# Assays:
# [1] = test system: MN9D cells expressing human A53T alpha-synuclein mutant; assay: Cell death (propidium iodide, flow cytometry), cells expressing mutated alpha synuclein; type: cell-based; details: Mutated alpha synuclein construct
# Source text: (§1) Parkinson's disease (PD) is characterized by the presence of aggregates (Lewy bodies) composed of alpha-synculein and other cellular proteins within neurons. (Paleologou; Gandhi) These aggregates are believed to be a critical factor in the death of the neuron and in the etiology of PD (Paleologou; Schrag). Mutated alpha-synuclein, as observed in those individuals with familial PD caused by synculein mutations, causes increased aggregate formation (Paleologou). A cell culture model is used to study alpha-synuclein aggregate formation in vitro. This model was created by using molecular biological techniques to transfect a dopaminergic cell line with DNA constructs that, when expressed, generate large amounts of normal alpha-synuclein (over-expressed) or mutated human alpha synuclein within the cells essentially as described by Perez et al (Perez). […] These cells were then treated with Difluoromethylornithine (DFMO) to test the ability of this agent to reduce cell death.
# (§2) Compared to control cells, treatment with DFMO (100-500 uM) increased survival in cells over-expressing alpha synuclein and in cells expressing mutated alpha synuclein by up to 54%.
# [2] = test system: Huntington's disease (HD) mice; assay: Rotorod motor function test in HD mice; type: in vivo; details: treated HD mice vs untreated HD mice, day 93 and day 105 after birth
# Experimental: This example was carried out as schematically illustrated in FIG. 1.
# [3] = test system: MN9D cells, vector only (control cells); assay: Cell death (propidium iodide, flow cytometry), cells with empty vector; type: cell-based; details: Vector only construct
# Source text: as §1, §2
# [4] = test system: MN9D cells over-expressing human alpha synuclein (wild type); assay: Cell death (propidium iodide, flow cytometry), cells over-expressing alpha synuclein; type: cell-based
# Source text: as §1, §2
# [5] = represents % cells rescued by DFMO, 100 um
smiles,measurement,setting,value
"NCCC[C@](N)(C(=O)O)C(F)F [DFMO, Alpha-difluoromethylornithine]",% rescue compared to vector control for DFMO treated cells,[1],40%
same,% Dead Cells (DFMO),[1]; DFMO-treated,38.1%
same,Reduction in % dead cells with DFMO (100 uM),[1]; [5],13.5%
same,Rotorod motor function,[2],better
same,% Dead Cells (DFMO),[3]; DFMO-treated,30.2%
same,Reduction in % dead cells with DFMO,[3]; [5],9.6%
same,% rescue compared to vector control for DFMO treated cells,[4]; Alpha-synuclein construct,54%
same,% Dead Cells (DFMO),"[4]; Alpha-synuclein construct, DFMO-treated",29.8%
same,% Dead Cells minus % DFMO-treated cells (100 um),"[4]; Alpha-synuclein construct, represents % cells rescued by DFMO, 100 um",15%
same,Increased survival compared to control cells,"[4]; DFMO 100-500 uM, cells over-expressing alpha synuclein and cells expressing mutated alpha synuclein",up to 54%
